Measured values: patent US6790869B2, “Resveratrol analogs for prevention of disease” (Rutgers, The State University of New Jersey, priority 1999, dated 2004)

Assays:
[1] = tested on: W138 and W138VA cells; test: Cell proliferation assay, result not separated by cell line; type: cell-based, human
Method: (§1) Initial tests examined the potential cancer preventive activity of the analogs. Resveratrol and its analogs were evaluated in W138 and SV40 transformed W138VA cells and in preneoplastic 184-B5/HER and neoplastic SK-BR-3 human mammary epithelial cells. Cell proliferation, apoptosis, and gene expression studies were conducted using standard methodologies.
(§2) W138 human diploid fibroblasts and cancerous SV40-transformed W138 cells (W138VA) were used in a cell proliferation assay. Growth rate and viability of these cells was determined following addition of each analog. Doses tested ranged from 50 ng to 300 μg per ml or 1 μM to 100 μM concentrations in culture media. Cell cultures were grown for 5 days in the presence of the various doses of analogs. Growth rate was measured by counting viable cells using the trypan blue dye exclusion method. Resveratrol inhibited cell growth at low concentrations, less than 10 μM. […] MR-1 was not active as an inhibitor of cell growth even at doses as high as 100 μM.

[2] = tested on: W138 human diploid fibroblasts; test: Cell proliferation assay, viable cells counted by trypan blue dye exclusion; type: cell-based; settings: at the concentration in parentheses after the analog; 5 days in culture
Method: as §1, §2

[3] = tested on: SV40-transformed W138 cells (W138VA); test: as above; type: cell-based, human; settings: at the concentration in parentheses after the analog; 5 days in culture
Method: as §1, §2

[4] = tested on: W138 cells; test: Morphological changes in cells; type: cell-based, human; settings: normal W138 cells
Source text: In addition to inhibition of cell growth, treatment of W138 and W138VA cells with analogs led to morphological changes in the cells. Treatment of W138 cells with resveratrol and its analogs R-1 and R-3 led to elongation of normal W138 cells. Methoxy analogs such as MR-0 and MR-3 caused the flattening of W138 cells.

[5] = tested on: W138 cells; test: Apoptosis assay, fluorescent labeling of fragmented DNA; type: cell-based, human
Source text: (§3) The effect of the analogs on apoptosis was also examined. Apoptosis is characterized by nuclear DNA fragmentation that is mediated through a variety of signal transduction pathways. An assay was used that relies on fluorescent labeling of fragmented DNA.

[6] = tested on: W138VA cells; test: as above; type: cell-based, human
Source text: as §3

## Oc1ccc(C=Cc2cc(O)c(O)c(O)c2)cc1 [Analog R-3, 3,4,4′,5-tetrahydroxystilbene]
[1]; relative to resveratrol
  fold less effective than resveratrol in inhibiting cell growth: 10 fold
[1]; value in parentheses in Table 1, W138 / W138VA cells, 5 days
  effective concentration for growth inhibition: R3 (10 μM)
[2]
  Growth Rate in Cells Following Exposure to Resveratrol Analogs, W138 Cells: + (>60% growth inhibition)
[3]
  Growth Rate in Cells Following Exposure to Resveratrol Analogs, W138VA Cells: + (>60% growth inhibition)
[4]
  morphological change of cells: elongation
[5]
  induction of apoptosis: not in W138 cells
[6]
  induction of apoptosis: induced apoptosis
